Source: ChEMBL document CHEMBL1201862, “PubChem BioAssay data set” (2004)
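All cell lines were grown in 96-well plates and treated with compound for 48 hours. At the GI50, growth is halved.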 The source made the active and inactive calls. No stated cut-off is given here; in the data, active = GI50 up to about 1.1 µM and inactive = higher.

Tests used:
Assay in all cases: NCI tumour cell line growth inhibition, 48 h
[1] = tested on: CAKI-1
[2] = tested on: OVCAR-5
[3] = tested on: HL-60
[4] = tested on: DMS-114
[5] = tested on: CCRF-CEM
[6] = tested on: NCI-H23
[7] = tested on: SF-539
[8] = tested on: HT-29
[9] = tested on: SNB-75
[10] = tested on: NCI-H226
[11] = tested on: XF498
[12] = tested on: KM12
[13] = tested on: OVCAR-8
[14] = tested on: DLD-1
[15] = tested on: SN12C
[16] = tested on: OVCAR-4
[17] = tested on: SNB-78
[18] = tested on: KM-20L2
[19] = tested on: ACHN
[20] = tested on: A498
[21] = tested on: LXFL 529
[22] = tested on: HCC 2998
[23] = tested on: EKVX
[24] = tested on: RXF 393
[25] = tested on: UACC-62
[26] = tested on: HCT-15
[27] = tested on: RPMI-8226
[28] = tested on: U-251
[29] = tested on: M14
[30] = tested on: HOP-62
[31] = tested on: COLO 205
[32] = tested on: MOLT-4
[33] = tested on: SW-620
[34] = tested on: DMS-273
[35] = tested on: SK-MEL-28
[36] = tested on: SF-268
[37] = tested on: UO-31
[38] = tested on: NCI-H460
[39] = tested on: IGROV-1
[40] = tested on: LOX IMVI
[41] = tested on: HOP-18
[42] = tested on: 786-0
[43] = tested on: A549
[44] = tested on: SK-OV-3
[45] = tested on: Malme-3M
[46] = tested on: NCI-H522
[47] = tested on: K562
[48] = tested on: HOP-92
[49] = tested on: SK-MEL-2
[50] = tested on: TK-10
[51] = tested on: SK-MEL-5
[52] = tested on: UACC-257
[53] = tested on: SF-295
[54] = tested on: SNB-19
[55] = tested on: OVCAR-3
[56] = tested on: M19-MEL
[57] = tested on: MCF7
[58] = tested on: NCI/ADR-RES
[59] = tested on: HCT-116

For `Cc1ccc(Nc2nc3c(s2)C(=O)c2ccccc2C3=O)c(C)c1`, the GI50 [1] was 14.2 µM (inactive), the GI50 [2] was 19.8 µM (inactive) and the GI50 [3] was 2.19 µM (inactive). For the same compound, the GI50 [4] was 8.59 µM (inactive), the GI50 [5] was 4.13 µM (inactive) and the GI50 [6] was 10.1 µM (inactive). The GI50 [7] was 17.5 µM (inactive), the GI50 [8] was 20.9 µM (inactive) and the GI50 [9] was 15.8 µM (inactive). For the same compound, the GI50 [10] was 12.1 µM (inactive), the GI50 [11] was 17.3 µM (inactive) and the GI50 [12] was 16 µM (inactive). The GI50 [13] was 15.7 µM (inactive), the GI50 [14] was 15.1 µM (inactive) and the GI50 [15] was 16.9 µM (inactive). For the same compound, the GI50 [16] was 12.2 µM (inactive), the GI50 [17] was 15.2 µM (inactive) and the GI50 [18] was 37.3 µM (inactive). The GI50 [19] was 15.7 µM (inactive), the GI50 [20] was 34 µM (inactive) and the GI50 [21] was 15 µM (inactive). The GI50 [22] was 17.2 µM (inactive), the GI50 [23] was 18.3 µM (inactive) and the GI50 [24] was 15.6 µM (inactive). The GI50 [25] was 13.8 µM (inactive), the GI50 [26] was 17.5 µM and the GI50 [27] was 12.1 µM (inactive). The GI50 [28] was 18.9 µM (inactive), the GI50 [29] was 14.3 µM (inactive) and the GI50 [30] was 16.5 µM (inactive). The GI50 [31] was 18.9 µM (inactive), the GI50 [32] was 3.94 µM (inactive) and the GI50 [33] was 20 µM (inactive). The GI50 [34] was 19.6 µM (inactive), the GI50 [35] was 16.8 µM (inactive) and the GI50 [36] was 11.1 µM (inactive). For the same compound, the GI50 [37] was 14.3 µM (inactive), the GI50 [38] was 22.2 µM (inactive) and the GI50 [39] was 16.4 µM (inactive). For the same compound, the GI50 [40] was 13.3 µM (inactive), the GI50 [41] was 4.57 µM (inactive) and the GI50 [42] was 17.5 µM (inactive). For the same compound, the GI50 [43] was 16.6 µM (inactive), the GI50 [44] was 29.6 µM (inactive) and the GI50 [45] was 13.6 µM (inactive). For the same compound, the GI50 [46] was 3.14 µM (inactive), the GI50 [47] was 10.9 µM (inactive) and the GI50 [48] was 9.48 µM (inactive). For the same compound, the GI50 [49] was 13.7 µM (inactive), the GI50 [50] was 21.8 µM (inactive) and the GI50 [51] was 13.1 µM (inactive). For the same compound, the GI50 [52] was 8.13 µM (inactive), the GI50 [53] was 15.3 µM (inactive) and the GI50 [54] was 14.6 µM (inactive). The GI50 [55] was 13.7 µM (inactive) and the GI50 [56] was 2.37 µM (inactive).

For `Cc1ccc(N2C(=O)C3CSCN3C2=O)cc1` (stereo not given), the GI50 [1] was > 100 µM (inactive), the GI50 [2] was > 100 µM (inactive) and the GI50 [3] was > 100 µM (inactive). For the same compound, the GI50 [4] was > 100 µM (inactive), the GI50 [5] was > 100 µM (inactive) and the GI50 [6] was > 100 µM (inactive). The GI50 [7] was > 100 µM (inactive), the GI50 [8] was > 100 µM (inactive) and the GI50 [9] was > 100 µM (inactive). For the same compound, the GI50 [10] was > 100 µM (inactive), the GI50 [11] was > 100 µM (inactive) and the GI50 [12] was > 100 µM (inactive). The GI50 [13] was > 100 µM (inactive), the GI50 [14] was > 100 µM (inactive) and the GI50 [15] was > 100 µM (inactive). The GI50 [16] was > 100 µM (inactive), the GI50 [20] was > 100 µM (inactive) and the GI50 [57] was > 100 µM (inactive). The GI50 [22] was > 100 µM (inactive), the GI50 [23] was > 100 µM (inactive) and the GI50 [25] was > 100 µM (inactive). The GI50 [26] was over 100 µM, the GI50 [27] was > 100 µM (inactive) and the GI50 [28] was > 100 µM (inactive). The GI50 [30] was > 100 µM (inactive), the GI50 [31] was > 100 µM (inactive) and the GI50 [32] was > 100 µM (inactive). For the same compound, the GI50 [33] was > 100 µM (inactive), the GI50 [35] was 15.8 µM (inactive) and the GI50 [36] was > 100 µM (inactive). The GI50 [37] was > 100 µM (inactive), the GI50 [38] was > 100 µM (inactive) and the GI50 [39] was > 100 µM (inactive). For the same compound, the GI50 [40] was > 100 µM (inactive), the GI50 [41] was > 100 µM (inactive) and the GI50 [43] was > 100 µM (inactive). The GI50 [44] was > 100 µM (inactive), the GI50 [46] was > 100 µM (inactive) and the GI50 [47] was > 100 µM (inactive). For the same compound, the GI50 [48] was > 100 µM (inactive), the GI50 [49] was > 100 µM (inactive) and the GI50 [51] was > 100 µM (inactive). For the same compound, the GI50 [52] was > 100 µM (inactive), the GI50 [53] was > 100 µM (inactive) and the GI50 [54] was > 100 µM (inactive). The GI50 [58] was > 100 µM (inactive), the GI50 [55] was > 100 µM (inactive) and the GI50 [59] was 2.46 µM (inactive). For the same compound, the GI50 [56] was > 100 µM (inactive).
